By IC50 is commonly meant the concentration needed to halve the response being measured.

Each structure is given as a SMILES string.

This note sets out measurements from ChEMBL document CHEMBL4476867, “Hydroxy formamide derivatives and their use” (2016).

Assay [1] concerns the target T1, Bone morphogenetic protein 1 (Homo sapiens, UniProt P13497).
T1 sequence (P13497 whole entry): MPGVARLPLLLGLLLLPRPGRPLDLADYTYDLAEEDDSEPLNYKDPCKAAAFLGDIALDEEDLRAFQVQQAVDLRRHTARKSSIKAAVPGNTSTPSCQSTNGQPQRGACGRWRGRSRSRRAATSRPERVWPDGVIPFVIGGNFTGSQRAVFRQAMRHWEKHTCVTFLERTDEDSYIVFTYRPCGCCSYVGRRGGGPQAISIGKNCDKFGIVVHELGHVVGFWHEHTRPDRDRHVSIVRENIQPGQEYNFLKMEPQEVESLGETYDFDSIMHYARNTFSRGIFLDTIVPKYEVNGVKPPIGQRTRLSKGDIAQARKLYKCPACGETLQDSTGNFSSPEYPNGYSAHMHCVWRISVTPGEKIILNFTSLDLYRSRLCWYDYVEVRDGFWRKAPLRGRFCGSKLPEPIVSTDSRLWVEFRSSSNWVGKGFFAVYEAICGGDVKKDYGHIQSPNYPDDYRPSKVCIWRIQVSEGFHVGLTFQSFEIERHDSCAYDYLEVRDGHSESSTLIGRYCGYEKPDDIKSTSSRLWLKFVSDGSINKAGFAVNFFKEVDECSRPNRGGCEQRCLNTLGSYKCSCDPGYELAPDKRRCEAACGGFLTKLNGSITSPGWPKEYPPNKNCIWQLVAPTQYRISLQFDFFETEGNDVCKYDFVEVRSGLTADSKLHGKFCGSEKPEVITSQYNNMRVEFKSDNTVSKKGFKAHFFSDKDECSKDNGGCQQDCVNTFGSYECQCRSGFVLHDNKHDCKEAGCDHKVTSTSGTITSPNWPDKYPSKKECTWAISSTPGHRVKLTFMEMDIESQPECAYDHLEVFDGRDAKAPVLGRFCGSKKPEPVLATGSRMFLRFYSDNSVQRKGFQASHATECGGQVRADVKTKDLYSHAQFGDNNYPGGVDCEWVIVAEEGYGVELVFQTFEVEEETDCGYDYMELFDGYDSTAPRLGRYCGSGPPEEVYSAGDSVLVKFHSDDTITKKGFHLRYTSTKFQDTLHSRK
Briefly: Inhibition of C-terminal FLAG-6x-His epitope tagged and N-terminal human RAGE signal sequence tagged human BMP1 (23 to 721 amino acids) expressed in CHO-E1 cells pre-incubated for 10 mins before promyostatin peptide substrate addition and measured after 60 mins using 0.5 nM BMP1 by FRET based assay. The format is cell-based.

Assay [2] can be described thus: Reduction in PICP levels in human cardiac fibroblasts incubated for 24 to 48 hrs by ELISA. The format is functional. The method, boiled down: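 Human cardiac fibroblasts at passage 6 or below were plated in 96-well plates at 10,000 to 15,000 cells per well. On the following day, cells were treated for 24 to 48 hr at 37° C in ficoll crowding EMEM containing 100 μM ascorbic acid, with DMSO kept under 0.3%. A Quidel ELISA measured procollagen I C-terminal propeptide released into the medium, and IC50 values were derived in GraphPad Prism by fitting levels, expressed relative to untreated controls, to a log(inhibitor)-response equation.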

Another assay has as its target Tolloid-like protein 1 (Homo sapiens, UniProt O43897, I156V/N221S/V284A). Briefly: Inhibition of recombinant human TLL1 I156V/N221S/V284A mutant expressed in CHOE1A cells pre-incubated for 10 mins before promyostatin peptide substrate addition and measured after 60 mins by FRET based assay. The format is cell-based.
Assay [3] is described as follows: Reduction in mature collagen deposition levels in human cardiac fibroblasts incubated for 24 to 48 hrs by immunostaining based assay. In kind it is functional. The method, boiled down: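 Human cardiac fibroblasts were plated in 96-well plates and treated for 24 to 48 hr at 37° C in ficoll crowding EMEM containing 100 μM ascorbic acid, with DMSO kept under 0.3%. After fixation in −20° C methanol for 10 min, cells were stained with anti-mature collagen I antibody, an Alexa647 secondary antibody and Hoechst and imaged on an Operetta system. The IC50 was fitted in GraphPad Prism from collagen intensity normalised to the nuclei count per field.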

Assay [4] concerns the target T1, Bone morphogenetic protein 1. Briefly: Inhibition of C-terminal FLAG-6x-His epitope tagged and N-terminal human RAGE signal sequence tagged human BMP1 (23 to 721 amino acids) expressed in CHO-E1 cells pre-incubated for 10 mins before promyostatin peptide substrate addition and measured after 30 mins using 50 nM BMP1 by FRET based assay. In kind it is cell-based.

The target of the next assay is T2, Tolloid-like protein 2 (Homo sapiens, UniProt Q9Y6L7).
T2 sequence (Q9Y6L7 whole entry): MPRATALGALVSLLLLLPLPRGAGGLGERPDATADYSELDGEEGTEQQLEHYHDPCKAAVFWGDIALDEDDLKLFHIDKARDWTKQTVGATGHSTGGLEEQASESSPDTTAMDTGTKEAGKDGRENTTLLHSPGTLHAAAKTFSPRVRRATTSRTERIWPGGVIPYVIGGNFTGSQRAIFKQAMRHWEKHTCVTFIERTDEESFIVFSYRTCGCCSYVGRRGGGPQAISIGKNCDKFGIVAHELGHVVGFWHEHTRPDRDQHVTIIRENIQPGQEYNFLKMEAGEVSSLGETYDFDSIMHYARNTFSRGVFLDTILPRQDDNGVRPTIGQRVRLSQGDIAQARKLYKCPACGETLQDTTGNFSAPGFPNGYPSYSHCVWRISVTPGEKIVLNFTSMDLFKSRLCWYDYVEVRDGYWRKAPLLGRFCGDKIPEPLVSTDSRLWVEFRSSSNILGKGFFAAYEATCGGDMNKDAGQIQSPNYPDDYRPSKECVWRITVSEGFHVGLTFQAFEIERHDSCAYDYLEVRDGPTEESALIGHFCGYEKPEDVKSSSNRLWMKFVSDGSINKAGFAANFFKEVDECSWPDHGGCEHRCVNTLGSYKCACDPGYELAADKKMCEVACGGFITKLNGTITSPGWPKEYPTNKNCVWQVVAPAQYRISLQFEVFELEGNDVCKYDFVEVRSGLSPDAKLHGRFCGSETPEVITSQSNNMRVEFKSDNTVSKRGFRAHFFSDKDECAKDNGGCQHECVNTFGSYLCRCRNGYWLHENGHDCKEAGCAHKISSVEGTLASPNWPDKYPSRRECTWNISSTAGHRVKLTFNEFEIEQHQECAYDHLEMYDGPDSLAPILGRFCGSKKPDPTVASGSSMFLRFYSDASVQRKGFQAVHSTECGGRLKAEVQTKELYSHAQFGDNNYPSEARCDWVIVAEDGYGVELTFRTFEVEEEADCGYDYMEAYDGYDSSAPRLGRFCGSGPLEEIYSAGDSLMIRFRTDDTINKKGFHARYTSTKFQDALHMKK
Briefly: Inhibition of C-terminal Avi-6x-His epitope tagged and N-terminal human RAGE signal sequence tagged recombinant human TLL2 (26 to 1015 amino acids) expressed in CHOE1A cells incubated for 60 mins with promyostatin peptide substrate by FRET based assay. The format is cell-based.

Chain of Tolloid-like protein 1 (O43897 148-1013 I156V/N221S/V284A limits assumed): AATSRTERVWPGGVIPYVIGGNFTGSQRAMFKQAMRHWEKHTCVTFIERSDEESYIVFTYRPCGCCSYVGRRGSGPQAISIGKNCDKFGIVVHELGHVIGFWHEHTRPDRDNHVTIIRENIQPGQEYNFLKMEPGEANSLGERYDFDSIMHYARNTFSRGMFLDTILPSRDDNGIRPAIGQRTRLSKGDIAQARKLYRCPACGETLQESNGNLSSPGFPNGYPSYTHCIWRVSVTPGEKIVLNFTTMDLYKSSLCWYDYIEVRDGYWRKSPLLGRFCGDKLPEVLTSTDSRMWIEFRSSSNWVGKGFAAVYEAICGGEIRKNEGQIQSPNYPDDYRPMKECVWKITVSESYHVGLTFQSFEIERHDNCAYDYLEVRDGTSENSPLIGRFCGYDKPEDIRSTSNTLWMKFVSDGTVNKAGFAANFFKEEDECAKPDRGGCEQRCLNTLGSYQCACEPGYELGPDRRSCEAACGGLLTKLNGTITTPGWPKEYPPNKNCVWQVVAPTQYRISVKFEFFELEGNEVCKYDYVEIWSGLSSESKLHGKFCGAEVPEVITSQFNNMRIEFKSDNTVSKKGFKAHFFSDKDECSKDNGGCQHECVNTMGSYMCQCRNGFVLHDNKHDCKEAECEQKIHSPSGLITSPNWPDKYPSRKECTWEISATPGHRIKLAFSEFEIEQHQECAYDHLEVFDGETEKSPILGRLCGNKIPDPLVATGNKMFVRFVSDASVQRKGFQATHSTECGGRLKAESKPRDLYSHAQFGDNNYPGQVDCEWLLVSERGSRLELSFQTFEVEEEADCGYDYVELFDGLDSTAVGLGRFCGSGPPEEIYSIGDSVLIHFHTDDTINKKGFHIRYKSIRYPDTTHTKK

For `CCCCC[C@H](CN(O)C=O)C(=O)NCNC(=O)c1ccc(-c2ccccc2)o1`, the IC50 is less than 126 nM in assay [1]; less than 3980 nM in assay [2]; less than 398 nM at Tolloid-like protein 1; less than 1000 nM in assay [3]; less than 200 nM in assay [4]; less than 794 nM on Tolloid-like protein 2.

Consider `CCCCC[C@@H](C(=O)NCNC(=O)c1ccc(-c2cc(OCC)cc(C(=O)O)c2)o1)[C@@H](CC)N(O)C=O`, for which the IC50 in assay [1] is less than 126 nM; in assay [2] it was less than 3980 nM; on Tolloid-like protein 1 it was less than 398 nM; in assay [3] it was less than 1000 nM; in assay [4], less than 200 nM; on Tolloid-like protein 2, less than 794 nM.

In the case of `CCCCC[C@@H](C(=O)NCNC(=O)c1ccc(-c2ccc(P(=O)(O)O)c(OCC)c2)o1)[C@@H](CC)N(O)C=O`, the IC50 in assay [1] was less than 126 nM; in assay [2], less than 3980 nM; at Tolloid-like protein 1, less than 398 nM; in assay [3], less than 1000 nM; in assay [4], less than 200 nM; at Tolloid-like protein 2, less than 794 nM.

For `CCCCC[C@@H](C(=O)NCNC(=O)c1ccc(-c2ccccc2)o1)[C@@H](CC)N(O)C=O`, the IC50 in assay [1] is less than 126 nM; in assay [2], less than 3980 nM; at Tolloid-like protein 1, less than 398 nM; in assay [3], less than 1000 nM; in assay [4], less than 200 nM; on Tolloid-like protein 2 it was less than 794 nM.

On to `CCCCC[C@@H](C(=O)NCNC(=O)c1ccc(-c2ccc(C(=O)N[C@@H](CC(=O)O)C(=O)O)c(OCC)c2)o1)[C@@H](CC)N(O)C=O`, for which the IC50 was less than 126 nM in assay [1]; less than 3980 nM in assay [2]; less than 398 nM at Tolloid-like protein 1; less than 1000 nM in assay [3]; less than 200 nM in assay [4]; less than 794 nM at Tolloid-like protein 2.

For `CCCCC[C@@H](C(=O)NCNC(=O)c1ccc(-c2cc(OCC)cc(P(=O)(O)O)c2)o1)[C@@H](CC)N(O)C=O`, the IC50 in assay [1] is less than 126 nM; in assay [2] it was less than 3980 nM; at Tolloid-like protein 1 it was less than 398 nM; in assay [3], less than 1000 nM; in assay [4], less than 200 nM; at Tolloid-like protein 2, less than 794 nM.

`CCCCC[C@@H](C(=O)NCNC(=O)c1ccc(-c2cc(OCC)cc(C(=O)N[C@@H](CC(=O)O)C(=O)O)c2)o1)[C@@H](CC)N(O)C=O`: the IC50 in assay [1] is less than 126 nM; in assay [2] it was less than 3980 nM; at Tolloid-like protein 1, less than 398 nM; in assay [3] it was less than 1000 nM; in assay [4], less than 200 nM; on Tolloid-like protein 2 it was less than 794 nM.

As for `CCCCC[C@@H](C(=O)NCNC(=O)c1ccc(-c2cc(CP(=O)(O)O)cc(OCC)c2)o1)[C@@H](CC)N(O)C=O`, the IC50 in assay [1] is less than 126 nM; in assay [2] it was less than 3980 nM; on Tolloid-like protein 1, less than 398 nM; in assay [3], less than 1000 nM; in assay [4], less than 200 nM; at Tolloid-like protein 2, less than 794 nM.

Take `CCCCC[C@@H](C(=O)NCNC(=O)c1ccc(-c2ccc(CC(=O)N[C@@H](CC(=O)O)C(=O)O)c(OCC)c2)o1)[C@@H](CC)N(O)C=O`: the IC50 in assay [1] is less than 126 nM; in assay [2], less than 3980 nM; on Tolloid-like protein 1 it was less than 398 nM; in assay [3] it was less than 1000 nM; in assay [4] it was less than 200 nM; at Tolloid-like protein 2, less than 794 nM.

`CCCCC[C@@H](C(=O)NCNC(=O)c1ccc(-c2cc(OCC)c(F)c(C(=O)O)c2)o1)[C@@H](CC)N(O)C=O`: the IC50 in assay [1] is less than 126 nM; in assay [2], less than 3980 nM; on Tolloid-like protein 1 it was less than 398 nM; in assay [3], less than 1000 nM; in assay [4], less than 200 nM; on Tolloid-like protein 2, less than 794 nM.

For `CCCCC[C@@H](C(=O)NCNC(=O)c1ccc(-c2cc(OCC)cc(C(=O)N[C@@H](CCC(=O)O)C(=O)O)c2)o1)[C@@H](CC)N(O)C=O`, the IC50 in assay [1] was less than 126 nM; in assay [2], less than 3980 nM; at Tolloid-like protein 1, less than 398 nM; in assay [3], less than 1000 nM; in assay [4], less than 200 nM; at Tolloid-like protein 2, less than 794 nM.

`CCCCC[C@@H](C(=O)NCNC(=O)c1ccc(-c2cc(OCC)cc(C(=O)N[C@@H](CC(=O)O)C(=O)OC(C)(C)C)c2)o1)[C@@H](CC)N(O)C=O`: the half-maximal inhibitory concentration (IC50) in assay [1] was less than 126 nM; in assay [2], less than 3980 nM; on Tolloid-like protein 1, less than 398 nM; in assay [3] it was less than 1000 nM; in assay [4] it was less than 200 nM; at Tolloid-like protein 2, less than 794 nM.

Take `CCCCC[C@@H](C(=O)NCNC(=O)c1ccc(-c2cccc(C3(C(=O)O)CC3)c2)o1)[C@@H](CC)N(O)C=O`: the IC50 in assay [1] was less than 126 nM; in assay [2] it was less than 3980 nM; on Tolloid-like protein 1 it was less than 398 nM; in assay [3], less than 1000 nM; in assay [4] it was less than 200 nM; on Tolloid-like protein 2 it was less than 794 nM.

Turning to `CCCCC[C@@H](C(=O)NCNC(=O)c1ccc(-c2cc(OCC)cc(C(=O)O)c2O)o1)[C@@H](CC)N(O)C=O`, the IC50 is less than 126 nM in assay [1]; less than 3980 nM in assay [2]; less than 398 nM on Tolloid-like protein 1; less than 1000 nM in assay [3]; less than 200 nM in assay [4]; less than 794 nM at Tolloid-like protein 2.

Turning to `CCCCC[C@@H](C(=O)NCNC(=O)c1ccc(-c2cc(OCCC)cc(C(=O)O)c2)o1)[C@@H](CC)N(O)C=O`, the IC50 in assay [1] is less than 126 nM; in assay [2], less than 3980 nM; at Tolloid-like protein 1, less than 398 nM; in assay [3], less than 1000 nM; in assay [4], less than 200 nM; on Tolloid-like protein 2, less than 794 nM.

As to `CCCCC[C@@H](C(=O)NCNC(=O)c1ccc(-c2ccc(C(=O)N(CC(=O)O)CC(=O)O)c(OCC)c2)o1)[C@@H](CC)N(O)C=O`, the IC50 was less than 126 nM in assay [1]; less than 3980 nM in assay [2]; less than 398 nM at Tolloid-like protein 1; less than 1000 nM in assay [3]; less than 200 nM in assay [4]; less than 794 nM at Tolloid-like protein 2.
